Key:
U937 cells = assay: EC50 of necroptosis inhibition in U937 cells (TSZ-induced, CellTiter-Glo); type: cell-based; conditions: Homo sapiens, U-937; TSZ (hTNF-α, SM-164, Z-VAD-FMK) 20 hours; 10 concentration points; read-out: EC50 intervals of necroptosis inhibition in U937 cells
Summary of the method: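 Luminescent ATP readout (CellTiter-Glo) after 20 h gave viability of TSZ-challenged U937 cells; compounds were added 15 min ahead of TNF-α/SM-164/Z-VAD-FMK. EC50 derived by variable-slope nonlinear regression of inhibition relative to no-TSZ and TSZ-alone controls.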

RIPK1 kinase = biological target: T1, RIPK1 kinase (Homo sapiens, UniProt Q13546); assay: In vitro RIPK1 kinase activity IC50 assay (ADP-Glo); type: biochemical; conditions: ATP 10 μM; MBP substrate 100 μg/mL; 8 concentration points; read-out: IC50 range of compounds for RIPK1 kinase activity
T1 construct: purchased Promega VA7593
T1 sequence (Q13546 1-671): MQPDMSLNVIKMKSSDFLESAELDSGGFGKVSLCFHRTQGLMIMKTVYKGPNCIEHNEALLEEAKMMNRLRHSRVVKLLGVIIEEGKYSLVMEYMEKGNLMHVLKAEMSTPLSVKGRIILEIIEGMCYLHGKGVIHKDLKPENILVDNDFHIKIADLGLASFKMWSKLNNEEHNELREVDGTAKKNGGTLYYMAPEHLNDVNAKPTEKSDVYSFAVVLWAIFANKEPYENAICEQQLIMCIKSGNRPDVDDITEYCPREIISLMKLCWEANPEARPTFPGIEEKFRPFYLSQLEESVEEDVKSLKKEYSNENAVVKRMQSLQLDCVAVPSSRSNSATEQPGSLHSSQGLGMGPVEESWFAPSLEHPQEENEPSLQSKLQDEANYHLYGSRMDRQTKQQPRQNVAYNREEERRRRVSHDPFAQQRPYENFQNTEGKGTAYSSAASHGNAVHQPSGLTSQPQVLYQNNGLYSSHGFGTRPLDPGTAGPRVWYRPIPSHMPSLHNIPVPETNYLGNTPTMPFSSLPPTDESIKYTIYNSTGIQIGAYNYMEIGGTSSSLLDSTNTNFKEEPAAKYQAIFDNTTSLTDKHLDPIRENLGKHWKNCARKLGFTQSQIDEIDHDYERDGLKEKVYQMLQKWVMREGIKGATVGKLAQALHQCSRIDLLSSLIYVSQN
Experimental: RIPK1 kinase activity was assayed using the ADP-Glo assay and RIPK1 kinase reaction system (Promega, catalog number: VA7593). The RIPK1 kinase activity assay was performed according to the Promega kit manual.
The experimental method was briefly described as below. The concentration of RIPK1 kinase in the RIPK1 kinase reaction system was determined by kinase titration and S/B10. The compound was diluted with 1× kinase buffer D (1% DMSO), 1 μL of 1 mM compound DMSO stock solution was added to 19 μL 1× kinase buffer D, and the compound was serially diluted with 1× kinase buffer D at a ratio of 1:5, for a total of 8 concentration points, and a control with the same DMSO volume was set. RIPK1 kinase was diluted with 1× kinase buffer D. 2.5×ATP/substrate was diluted with 1× kinase buffer D. The final concentration of ATP in the kinase reaction system was 10 μM. The final concentration of MBP substrate was 100 μg/mL. 1 μL of diluted compound and 2 μL of diluted RIPK1 kinase were mixed, incubated at room temperature for 15 minutes, 2 μL of 2.5×ATP/substrate was added, mixed, and incubated at room temperature for 1 hour. 5 μL ADP-Glo reagent was added to each well and incubated at room temperature for 1 hour. 10 μL ADP detection reagent was added to each well and incubated at room temperature for another 0.5-1 hour. The chemiluminescent signal was read with a microplate reader and the kinase activity inhibition rate was calculated. IC50 was obtained by fitting the nonlinear regression curve log [inhibitor] vs. response-variable slope (four parameters) in GraphPad Prism.

| SMILES | IC50 (RIPK1 kinase) | EC50 (U937 cells) |
| --- | --- | --- |
| CN1C(=O)[C@@H](NC(=O)C(=O)NCCc2ccccc2)COc2ccc(C#CC3(O)CCCCC3)cc21 [Example 44, (S)—N^1-(7-((1-hydroxycyclohexyl)ethynyl)-5-methyl-4-oxo-2,3,4,5-tetrahydrobenzo[b][1,4]oxazepin-3-yl)-N^2-phenethyloxalamide] | < 100 nM | < 100 nM |
| CN1C(=O)[C@@H](NC(=O)C(=O)NCCc2ccccc2)COc2ccc(C#CCN3CCC(O)C3)cc21 (stereo partly drawn) [Example 46, N^1-((3S)-7-(3-(3-hydroxypyrrolidin-1-yl)prop-1-yn-1-yl)-5-methyl-4-oxo-2,3,4,5-tetrahydrobenzo[b][1,4]oxazepin-3-yl)-N^2-phenethyloxalamide] | < 100 nM | < 100 nM |
| CN1C(=O)[C@@H](NC(=O)C(=O)NCCc2ccccc2)COc2ccc(C#CCN3CCC(=O)CC3)cc21 [Example 47, (S)—N^1-(5-methyl-4-oxo-7-(3-(4-oxopiperidin-1-yl)prop-1-yn-1-yl)-2,3,4,5-tetrahydrobenzo[b][1,4]oxazepin-3-yl)-N^2-phenethyloxalamide] | < 100 nM | < 100 nM |
| CN1C(=O)[C@@H](NC(=O)C(=O)NCCc2ccccc2)COc2ccc(C#CCN3CCOCC3)cc21 [Example 48, (S)—N^1-(5-methyl-7-(3-morpholinoprop-1-yn-1-yl)-4-oxo-2,3,4,5-tetrahydrobenzo[b][1,4]oxazepin-3-yl)-N^2-phenethyloxalamide] | < 100 nM | < 100 nM |
| CN1C(=O)[C@@H](NC(=O)C(=O)NCCc2ccccc2)COc2ccc(C#CCCNS(C)(=O)=O)cc21 [Example 51, (S)—N^1-(5-methyl-7-(4-(methylsulfonamido)but-1-yn-1-yl)-4-oxo-2,3,4,5-tetrahydrobenzo[b][1,4]oxazepin-3-yl)-N^2-phenethyloxalamide] | < 100 nM | < 100 nM |

More lines, main results first:

| IC50 (RIPK1 kinase) | SMILES | EC50 (U937 cells) |
| --- | --- | --- |
| < 100 nM | CN1C(=O)[C@@H](NC(=O)C(=O)NCc2cccc(F)c2)COc2ccc(C#CCCO)cc21 [Example 39, (S)—N^1-(3-fluorobenzyl)-N^2-(7-(4-hydroxybut-1-yn-1-yl)-5-methyl-4-oxo-2,3,4,5-tetrahydrobenzo[b][1,4]oxazepin-3-yl)oxalamide] | 100 to 500 nM |
| < 100 nM | CN1C(=O)[C@@H](NC(=O)C(=O)NCc2ccc(F)cc2)COc2ccc(C#CCCO)cc21 [Example 40, (S)—N^1-(4-fluorobenzyl)-N^2-(7-(4-hydroxybut-1-yn-1-yl)-5-methyl-4-oxo-2,3,4,5-tetrahydrobenzo[b][1,4]oxazepin-3-yl)oxalamide] | < 100 nM |
| < 100 nM | CN1C(=O)[C@@H](NC(=O)C(=O)NCCc2cccc(F)c2)COc2ccc(C#CC(C)(C)O)cc21 [Example 42, (S)—N^1-(3-fluorophenethyl)-N^2-(7-(3-hydroxy-3-methylbut-1-yn-1-yl)-5-methyl-4-oxo-2,3,4,5-tetrahydrobenzo[b][1,4]oxazepin-3-yl)oxalamide] | < 100 nM |
| < 100 nM | CN1C(=O)[C@@H](NC(=O)C(=O)NCCc2ccccc2)COc2ccc(C#CC3(O)COC3)cc21 [Example 43, (S)—N^1-(7-((3-hydroxyoxetan-3-yl)ethynyl)-5-methyl-4-oxo-2,3,4,5-tetrahydrobenzo[b][1,4]oxazepin-3-yl)-N^2-phenethyloxalamide] | < 100 nM |
| < 100 nM | C/C(C#Cc1ccc2c(c1)N(C)C(=O)[C@@H](NC(=O)C(=O)NCCc1ccccc1)CO2)=C/CO [Example 45, (S,Z)-N^1-(7-(5-hydroxy-3-methylpent-3-en-1-yn-1-yl)-5-methyl-4-oxo-2,3,4,5-tetrahydrobenzo[b][1,4]oxazepin-3-yl)-N^2-phenethyloxalamide] | < 100 nM |
| < 100 nM | CN1C(=O)[C@@H](NC(=O)C(=O)NCCc2ccccc2)COc2ccc(C#CCCN)cc21 [Example 50, (S)—N^1-(7-(4-aminobut-1-yn-1-yl)-5-methyl-4-oxo-2,3,4,5-tetrahydrobenzo[b][1,4]oxazepin-3-yl)-N^2-phenethyloxalamide] | < 100 nM |

From patent US20250368633A1, “AZEPINE FUSED RING COMPOUND AS RIPK1 INHIBITOR AND USE THEREOF” (ARTIVILA BIOPHARMA, priority 2022, published 2025)
